These results are taken from ChEMBL document CHEMBL1201862, “PubChem BioAssay data set” (2004).

Calls of active or inactive are those of the source.

For assay [1], the target named is T1, Fatty acid synthase (Homo sapiens, UniProt P49327). Briefly: inhibition of human FAS-TE enzyme activity – biochemical, kinetic fluorescence intensity, dose response (AID 624326).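 Note: rate of fluorescence rise from hydrolysis of a fluorogenic O-methyl fluorescein ester substrate.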 It counts as functional.
Assay [2] concerns the target T1, Fatty acid synthase. Briefly: inhibition of human FAS-TE enzyme activity – biochemical, endpoint fluorescence intensity, uHTS hits, dose response (AID 624327).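 Note: fluorescence from hydrolysis of an O-methyl fluorescein acyl ester substrate by the enzyme.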 Type of assay: functional.
Another assay has as its target Beta Lactamase (Pseudomonas aeruginosa, UniProt Q932Y6). Description: BLA reporter interference, concentration series – BLA reporter cells, FRET fluorescence, artefact control for NOD2-RIPK2 interaction inhibitor project, dose response (AID 651552). It counts as functional, cell-based.
Assay [3] is described as follows: Fluorescence-based cell-based high throughput dose response assay for inhibitors of the interaction of nucleotide-binding oligomerization domain containing 2 (NOD2) and the receptor-interacting serine-threonine kinase 2 (RIPK2). Type of assay: functional. Conditions: Homo sapiens.
Assay [4] in a line: rise of 4N DNA cells, HeLa – IC50, dose response (AID 1117351). Type of assay: functional, cell-based.
A short description of assay [5]: Reduced DLD-1 viability, concentration-response, CellTiter-Glo luminescence (AID 1117352). It counts as functional.
A short description of assay [6]: blockers of bursicon-stimulated LGR2 cAMP reporter – cell-based, HEK293, CRE-luciferase reporter, cherry pick, set 2, dose response (AID 743343).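 Note: transfected cells were stimulated with diluted bursicon conditioned medium after compound addition.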 It counts as functional. On the technique in general: In a reporter assay the amount or activity of a reporter protein is the signal.
Assay [7] is described as follows: RKO cell viability reduction, dose response, CellTiter-Glo luminescence (AID 1117322). It counts as functional.
Assay [8] in a line: rise of 2N DNA cells, HeLa – IC50, dose response (AID 1117349). Type of assay: functional, cell-based.
A short description of assay [9]: DRD fibroblast viability loss – cell-based, non-viral oncogenic, luminescence, dose response (AID 1934). It counts as functional. The note with it: Homo sapiens.
A short description of assay [10]: HCT116 cell viability decrease, GSK3B pretreatment – CellTiter-Glo, IC50, dose response (AID 1117339). Type of assay: functional. The note with it: HCT-116.
The target in the next assay is T2, Protein RecA (Mycobacterium tuberculosis, UniProt P9WHJ3).
T2 sequence (P9WHJ3 whole entry): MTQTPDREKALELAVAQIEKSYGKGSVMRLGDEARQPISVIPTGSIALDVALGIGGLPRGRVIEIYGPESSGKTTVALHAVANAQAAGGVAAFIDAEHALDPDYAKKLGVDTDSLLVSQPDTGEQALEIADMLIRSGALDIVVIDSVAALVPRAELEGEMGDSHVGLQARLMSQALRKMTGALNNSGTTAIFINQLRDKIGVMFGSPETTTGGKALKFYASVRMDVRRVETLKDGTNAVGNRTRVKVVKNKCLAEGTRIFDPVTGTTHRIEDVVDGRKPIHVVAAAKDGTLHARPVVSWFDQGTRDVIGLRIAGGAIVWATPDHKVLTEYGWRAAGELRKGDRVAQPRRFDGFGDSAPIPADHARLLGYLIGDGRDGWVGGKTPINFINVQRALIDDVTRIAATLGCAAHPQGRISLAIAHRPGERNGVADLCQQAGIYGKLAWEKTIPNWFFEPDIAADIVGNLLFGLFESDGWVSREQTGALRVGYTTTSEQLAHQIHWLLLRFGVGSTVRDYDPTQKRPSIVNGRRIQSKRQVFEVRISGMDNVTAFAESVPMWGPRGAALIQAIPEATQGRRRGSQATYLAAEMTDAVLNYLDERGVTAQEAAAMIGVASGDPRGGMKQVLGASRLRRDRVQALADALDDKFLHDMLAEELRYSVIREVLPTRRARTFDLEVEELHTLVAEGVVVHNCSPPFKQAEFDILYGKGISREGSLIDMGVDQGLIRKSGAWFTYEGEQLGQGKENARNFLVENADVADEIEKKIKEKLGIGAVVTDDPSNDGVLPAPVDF
Description: Fluorescence Cell-Free Homogeneous Dose Retest to Identify Inhibitors of RecA-Intein Splicing Activity. [Related pubchem assays (depositor defined):AID2097, AID2223, AID489010, AID492950]. Type of assay: functional.

A short description of assay [11]: cytotoxicity toward HT-29 cells – cell-based, CellTiter-Glo luminescence, IC50, dose response (AID 1117330). Type of assay: functional. A general note: Cellular ATP, detected with luciferase, serves as a proxy for viable cell number.
The target of assay [12] is Photoreceptor-specific nuclear receptor (Homo sapiens, UniProt Q9Y5X4). Type of assay: functional, cell-based.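 Note: CHO-S cells with Gal4-NCOR and VP16-NR2E3 two-hybrid luciferase reporter.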
The next assay has as its target Nonstructural protein 1 (Influenza A virus, UniProt Q194T2). It counts as functional, Influenza A virus (A/California/07/2009(H1N1)).
The target of assay [13] is T3, Replicative DNA helicase DnaB (Mycobacterium tuberculosis, UniProt P9WMR3).
T3 sequence (P9WMR3 whole entry): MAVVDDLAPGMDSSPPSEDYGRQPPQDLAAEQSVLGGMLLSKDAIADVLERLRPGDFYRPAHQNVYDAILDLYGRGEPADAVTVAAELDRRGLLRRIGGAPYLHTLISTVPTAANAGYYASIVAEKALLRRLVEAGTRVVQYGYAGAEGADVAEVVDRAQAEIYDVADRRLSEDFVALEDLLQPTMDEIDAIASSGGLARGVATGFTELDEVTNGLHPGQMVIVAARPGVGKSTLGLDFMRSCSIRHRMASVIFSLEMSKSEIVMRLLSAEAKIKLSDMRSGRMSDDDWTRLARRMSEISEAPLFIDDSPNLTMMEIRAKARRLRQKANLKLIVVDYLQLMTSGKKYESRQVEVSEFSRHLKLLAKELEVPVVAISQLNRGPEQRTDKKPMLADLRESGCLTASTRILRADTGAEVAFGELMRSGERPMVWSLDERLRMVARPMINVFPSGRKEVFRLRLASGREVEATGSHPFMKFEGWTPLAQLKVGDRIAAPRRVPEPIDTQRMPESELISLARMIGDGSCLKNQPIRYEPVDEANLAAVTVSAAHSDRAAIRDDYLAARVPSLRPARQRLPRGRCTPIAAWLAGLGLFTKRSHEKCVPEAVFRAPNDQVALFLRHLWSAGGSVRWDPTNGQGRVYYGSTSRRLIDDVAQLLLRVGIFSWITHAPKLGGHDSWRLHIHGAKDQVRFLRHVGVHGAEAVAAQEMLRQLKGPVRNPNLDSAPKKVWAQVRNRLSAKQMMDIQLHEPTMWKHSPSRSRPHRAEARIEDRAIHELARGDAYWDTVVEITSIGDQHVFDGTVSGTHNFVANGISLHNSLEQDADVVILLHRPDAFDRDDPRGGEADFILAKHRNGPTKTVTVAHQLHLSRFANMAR
Briefly: DnaB intein splicing inhibitors, dose response, biochemical, cell-free fluorescence (AID 449749). It counts as functional.

The nature of assay [14]: NIH-3T3 fibroblast cytotoxicity, dose response, cytotoxicity control, cell-based, fluorescence, Alamar Blue, secondary assay (AID 2327).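 Note: NIH-3T3 mouse fibroblasts cultured with fluconazole at 8 µg/mL.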 It counts as functional.
Assay [15] can be described thus: blockade of melanocortin 4 receptor signaling – cell-based, plate reader, cherry pick, counter-screen for LGR2 antagonist project, dose response (AID 743444).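 Note: transfected HEK 293 cells stimulated with alpha-MSH peptide; potency of inhibitors of the alpha-MSH evoked signal.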 It counts as functional. In general terms: A counterscreen serves to expose hits that act by an unwanted route or on another target.
Assay [16] can be described thus: SNU-C1 cell viability reduction, dose response, CellTiter-Glo luminescence (AID 1117323). It counts as functional, cell-based.
Assay [17] can be described thus: CellTiter-Glo luminescence survival assay, SW480 colon tumor line, concentration-response curve, half-maximal inhibitory concentration (AID 1117338). It counts as functional.
Assay [18] is described as follows: fluconazole-exposed Candida albicans growth modulators – fluorescence, retest, confirmation (AID 2467). Type of assay: functional, cell-based.
A further assay concerns the target T4, Caspase-6 (Homo sapiens, UniProt P55212).
T4 sequence (P55212 whole entry): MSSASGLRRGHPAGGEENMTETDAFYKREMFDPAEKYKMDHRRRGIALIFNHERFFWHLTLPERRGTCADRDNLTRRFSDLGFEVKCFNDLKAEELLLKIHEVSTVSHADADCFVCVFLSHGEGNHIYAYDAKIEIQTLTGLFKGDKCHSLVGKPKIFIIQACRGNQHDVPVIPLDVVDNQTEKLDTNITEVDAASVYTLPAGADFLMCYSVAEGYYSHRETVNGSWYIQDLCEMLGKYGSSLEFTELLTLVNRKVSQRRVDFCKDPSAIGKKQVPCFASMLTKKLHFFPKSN
Description: inhibition of CASP6 peptide cleavage – biochemical, VEID-R110 fluorescence, cherry-pick, dose response (AID 720632).

Assay [19] can be described thus: cytotoxicity toward HCT116 cells – cell-based, CellTiter-Glo luminescence, IC50, dose response (AID 1117332). The note with it: HCT-116. Type of assay: functional.
A short description of assay [20]: toxicity toward HepG2 liver cells – cell-based, plate reader, cherry-pick, antagonist series, cytotoxicity control, dose response (AID 743416). It counts as functional.
Assay [21] can be described thus: cytotoxicity toward Colo320 cells – cell-based, CellTiter-Glo luminescence, IC50, dose response (AID 1117334). Type of assay: functional. Conditions: COLO 320.
For assay [22], the system named is BJ. Description: BJ-TERT fibroblast viability loss – cell-based, RAS-independent, luminescence, dose response (AID 1933). Type of assay: functional. Conditions: Homo sapiens.
The nature of assay [23]: viability loss in HEK293 cells – cell-based, plate reader, cherry-picked samples, cytotoxicity control, dose response (AID 743446). Type of assay: functional.
A short description of assay [24]: viability loss in THP-1 monocytes – THP-1 cells, cytotoxicity control for Vif-APOBEC3G degradation inhibitor project, dose response (AID 1117359). It counts as functional. Conditions: THP-1.
A short description of assay [25]: A549 cell cytotoxicity, dose response, cytotoxicity control, plate reader, cherry-pick, antagonist series (AID 743412). It counts as functional, cell-based.
Assay [26] has as its target Heat shock protein HSP 90-alpha (Homo sapiens, UniProt P07900). Type of assay: functional, organism-based.
In assay [27] the test system is BJ. Briefly: BJ-TERT-LT-ST fibroblast viability loss – cell-based, RAS-independent, luminescence, dose response (AID 1935).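 Note: BJ fibroblasts immortalized with TERT plus LT and ST oncogenes.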 Type of assay: functional. The note with it: Homo sapiens.
For assay [28], the system named is BJ. Description: cells. It counts as functional, cell-based. Conditions: Homo sapiens.

T1 sequence (P49327 whole entry): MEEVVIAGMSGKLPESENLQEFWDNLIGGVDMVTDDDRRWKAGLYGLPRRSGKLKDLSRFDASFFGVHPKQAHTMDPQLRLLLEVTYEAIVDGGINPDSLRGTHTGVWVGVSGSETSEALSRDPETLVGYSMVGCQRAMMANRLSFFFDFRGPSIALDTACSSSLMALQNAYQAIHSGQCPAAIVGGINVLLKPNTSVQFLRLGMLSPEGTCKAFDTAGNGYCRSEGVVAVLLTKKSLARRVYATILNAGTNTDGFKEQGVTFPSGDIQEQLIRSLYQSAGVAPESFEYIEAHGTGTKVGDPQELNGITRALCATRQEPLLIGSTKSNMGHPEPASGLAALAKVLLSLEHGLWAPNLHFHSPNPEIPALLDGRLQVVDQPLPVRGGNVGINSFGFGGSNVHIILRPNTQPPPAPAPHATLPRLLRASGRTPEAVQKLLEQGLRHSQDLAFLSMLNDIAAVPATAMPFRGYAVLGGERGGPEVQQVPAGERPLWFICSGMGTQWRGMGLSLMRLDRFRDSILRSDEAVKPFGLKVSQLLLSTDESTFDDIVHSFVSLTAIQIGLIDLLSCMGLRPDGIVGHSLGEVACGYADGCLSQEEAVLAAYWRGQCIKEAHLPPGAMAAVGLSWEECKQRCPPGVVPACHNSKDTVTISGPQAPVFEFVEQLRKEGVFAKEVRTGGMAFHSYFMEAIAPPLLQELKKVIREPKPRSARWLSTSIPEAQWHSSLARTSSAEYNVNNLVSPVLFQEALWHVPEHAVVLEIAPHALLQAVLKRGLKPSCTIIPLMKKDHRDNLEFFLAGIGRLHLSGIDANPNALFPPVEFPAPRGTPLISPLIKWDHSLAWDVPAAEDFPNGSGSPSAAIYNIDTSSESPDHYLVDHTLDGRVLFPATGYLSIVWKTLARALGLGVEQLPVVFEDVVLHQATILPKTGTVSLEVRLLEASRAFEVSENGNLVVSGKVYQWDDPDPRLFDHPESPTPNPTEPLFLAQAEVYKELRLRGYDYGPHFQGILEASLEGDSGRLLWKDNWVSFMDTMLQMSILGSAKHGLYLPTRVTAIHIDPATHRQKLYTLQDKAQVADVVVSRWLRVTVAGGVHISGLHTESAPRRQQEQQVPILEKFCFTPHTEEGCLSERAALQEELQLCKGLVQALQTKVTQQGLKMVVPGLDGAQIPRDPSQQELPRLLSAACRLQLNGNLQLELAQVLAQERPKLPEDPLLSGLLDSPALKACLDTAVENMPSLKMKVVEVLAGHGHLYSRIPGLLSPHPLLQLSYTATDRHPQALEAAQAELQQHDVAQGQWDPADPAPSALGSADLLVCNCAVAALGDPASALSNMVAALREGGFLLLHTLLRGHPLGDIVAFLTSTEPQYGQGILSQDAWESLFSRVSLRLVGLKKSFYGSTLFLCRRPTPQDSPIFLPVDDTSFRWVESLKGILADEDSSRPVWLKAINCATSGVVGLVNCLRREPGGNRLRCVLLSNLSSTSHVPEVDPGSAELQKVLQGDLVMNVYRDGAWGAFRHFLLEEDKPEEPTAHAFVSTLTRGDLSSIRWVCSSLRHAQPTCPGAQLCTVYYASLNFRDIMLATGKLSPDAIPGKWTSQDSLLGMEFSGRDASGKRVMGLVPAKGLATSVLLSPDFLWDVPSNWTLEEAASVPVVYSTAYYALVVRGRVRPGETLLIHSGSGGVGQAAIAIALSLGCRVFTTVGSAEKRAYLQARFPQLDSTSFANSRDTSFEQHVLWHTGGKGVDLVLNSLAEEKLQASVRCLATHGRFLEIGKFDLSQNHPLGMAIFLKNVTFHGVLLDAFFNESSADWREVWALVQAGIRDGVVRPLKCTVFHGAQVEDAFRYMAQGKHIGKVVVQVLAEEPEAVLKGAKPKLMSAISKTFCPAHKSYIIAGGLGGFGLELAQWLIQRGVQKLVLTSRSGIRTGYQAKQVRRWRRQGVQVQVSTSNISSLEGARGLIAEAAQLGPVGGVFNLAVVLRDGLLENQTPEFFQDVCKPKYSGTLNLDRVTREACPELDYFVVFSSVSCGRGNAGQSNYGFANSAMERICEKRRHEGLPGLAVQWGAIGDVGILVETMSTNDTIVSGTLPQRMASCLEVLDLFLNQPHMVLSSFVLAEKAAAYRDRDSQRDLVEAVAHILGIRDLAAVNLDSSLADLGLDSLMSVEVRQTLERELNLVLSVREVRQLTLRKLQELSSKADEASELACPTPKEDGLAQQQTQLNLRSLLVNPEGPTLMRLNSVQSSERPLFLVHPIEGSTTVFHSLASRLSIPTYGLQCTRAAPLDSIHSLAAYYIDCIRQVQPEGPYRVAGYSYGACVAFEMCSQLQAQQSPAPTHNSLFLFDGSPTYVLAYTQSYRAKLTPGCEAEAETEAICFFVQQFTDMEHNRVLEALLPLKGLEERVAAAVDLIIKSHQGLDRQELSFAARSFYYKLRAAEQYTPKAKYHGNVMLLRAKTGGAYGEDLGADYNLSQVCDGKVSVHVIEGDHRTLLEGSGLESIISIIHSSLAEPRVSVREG
Chain of Beta Lactamase (Q932Y6 whole entry, the tested form may be a part): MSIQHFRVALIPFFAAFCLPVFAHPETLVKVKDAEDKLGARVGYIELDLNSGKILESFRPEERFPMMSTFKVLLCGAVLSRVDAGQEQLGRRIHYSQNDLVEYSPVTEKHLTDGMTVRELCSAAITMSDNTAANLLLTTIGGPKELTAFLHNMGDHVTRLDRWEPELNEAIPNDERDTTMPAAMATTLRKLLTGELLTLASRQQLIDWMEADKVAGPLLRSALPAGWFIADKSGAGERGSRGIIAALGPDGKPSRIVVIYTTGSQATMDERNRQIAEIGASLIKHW
Chain of Photoreceptor-specific nuclear receptor (Q9Y5X4 whole entry, the tested form may be a part): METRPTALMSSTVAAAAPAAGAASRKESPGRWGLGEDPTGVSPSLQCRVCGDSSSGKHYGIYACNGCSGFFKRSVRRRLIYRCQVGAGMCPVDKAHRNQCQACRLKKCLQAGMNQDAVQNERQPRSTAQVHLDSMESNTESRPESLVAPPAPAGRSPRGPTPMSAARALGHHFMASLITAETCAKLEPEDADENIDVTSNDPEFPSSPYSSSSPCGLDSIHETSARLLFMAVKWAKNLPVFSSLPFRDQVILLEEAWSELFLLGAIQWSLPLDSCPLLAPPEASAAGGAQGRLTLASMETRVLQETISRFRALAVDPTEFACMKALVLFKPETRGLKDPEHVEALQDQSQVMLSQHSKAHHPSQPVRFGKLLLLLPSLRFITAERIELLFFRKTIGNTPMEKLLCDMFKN
Chain of Nonstructural protein 1 (Q194T2 whole entry): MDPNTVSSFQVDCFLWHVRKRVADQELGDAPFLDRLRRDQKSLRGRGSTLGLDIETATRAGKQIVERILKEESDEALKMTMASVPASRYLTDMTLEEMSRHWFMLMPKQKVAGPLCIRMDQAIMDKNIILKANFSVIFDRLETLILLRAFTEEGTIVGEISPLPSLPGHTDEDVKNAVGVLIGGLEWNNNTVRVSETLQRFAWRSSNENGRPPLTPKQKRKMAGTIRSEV

By IC50 is commonly meant the point on the concentration scale where inhibition reaches its midpoint. With `CCOC(=O)[C@]12Cc3c(cc(OC)c(OC)c3OC)[C@H]1N(C1CCCCC1)C(=O)c1ccccc12`, the IC50 on Fatty acid synthase [1] is 7.77 µM (active); on Fatty acid synthase [2], 8.89 µM (active); at Beta Lactamase, 25.5 µM (inactive); in assay [3] it was 2.03 µM (active).
As a reminder, the AC50 is the concentration at which the activity in the assay is half-maximal. The EC50 is the concentration at which the effect is half-maximal. The CC50 is the concentration at which the toxic effect on the cells reaches its halfway point. `O=[N+]([O-])c1ccc(O)c2ncccc12` [NITROXOLINE]: the IC50 in [4] is > 10 µM (inactive); in assay [5], 1.38 µM (active); in assay [7], 0.71 µM (active); in assay [8] it was 1.7 µM (active); in assay [10] it was 0.375 µM (active); in assay [11], > 20 µM (inactive). For the same compound, the IC50 in assay [12] was 8.96 µM (active); at Nonstructural protein 1, 4.72 µM (active); in [16] it was > 20 µM (inactive); in assay [17], 0.605 µM (active); in assay [19], 0.921 µM (active); in [21], 0.684 µM (active). Besides, the AC50 in [6] was 54.9 µM (active); in [13], 9.95 µM (active); in assay [15], 48.7 µM (active); at Caspase-6, 14.9 µM (active); in assay [20], 9.7 µM (active); in assay [23] it was 11.5 µM (active). Further, the figures for the AC50 in [25] and in assay [26] were 12.1 µM (active) and 0.996 µM (active), respectively. The EC50 was 16.6 µM (active) in [9]; 14.4 µM (active) at Protein RecA; 9.52 µM (inconclusive) in assay [14]; 0.161 µM (active) in assay [18]; 9.44 µM (active) in the assay with BJ [22]; 16.7 µM (inconclusive) in the assay with BJ [27]. Moreover, the EC50 in the assay on BJ [28] is 28.8 µM (active). Further, the CC50 in assay [24] is 5.53 µM (active).
